Results on 21 compounds are retold here after patent US11999805B1, “Peptide inhibitors of CRISPR-Cas9” (priority 2020, dated 2024).

Series [1] addresses T1, SpyCas9 (Streptococcus pyogenes serotype M1, UniProt Q99ZW2). Kind of series: Beacon DNA binding assay (Cas9 RNP binding to DNA substrate). To be noted: for binding of SpyCas9 RNP to DNA substrate (beacon fluorescence): peptide 40 μM, SpyCas9 500 nM, DNA substrate 50 nM. Also on record: species or system S. pyogenes. As to the method:
To determine the mechanism of action of these peptide inhibitors, a binding assay was performed to determine if inhibitors are blocking Cas9 RNP binding to the DNA substrate. The beacon DNA binding assay was adapted and performed as described in Mekler V, Minakhin L, Semenova E, Kuznedelov K, Severinov K. 2016. Kinetics of the CRISPR-Cas9 effector complex assembly and the role of 3′-terminal segment of guide RNA. Nucleic Acids Res 44:2837-45. DNA probes were prepared from unmodified and chromophore-labeled DNA oligonucleotides synthesized by Integrated DNA Technologies. Equimolar amounts of synthetic complementary strands were mixed in a buffer containing 40 mM Tris, pH 7.9, 100 mM NaCl; heated for 2 min at 90° C. and slowly cooled to 20° C. The PAM-distal ends of the beacon target and non-target strands were labeled with fluorescein and Iowa Black® FQ, respectively. Both beacons mimic native target DNA and bind Cas9/sgRNA. The fluorescent signal is increased when Cas9 binds the DNA substrate and a helix forms with the target substrate strand and gRNA resulting in dissociation of oligo 3, leading to increase in fluorescent signal.
Data are the average ±SD of three replicate wells.

Series [2] deals with T1, SpyCas9. Type of series: biochemical, S. pyogenes. The note with it: for IC50: read-out: SpyCas9 IC50, FRET cleavage assay, concentration curves, 0.5 μM Cas9, 50 nM DNA substrate. The procedure:
To determine whether synthetic peptides would inhibit Cas9 cleavage activity, 200 peptide sequences were selected for chemical synthesis based on the following criteria: (1) peptides enriched after independent panning on RNP immobilized on both the Monomeric Avidin and NeutrAvidin columns, (2) Higher Boman index (>2.3), the computed potential protein-protein interaction for a given amino-acids sequence (3) a predicted instability index below 50. Theses peptides were screened at 200 μM for inhibition of Cas9 cleavage activity using the recently developed HT FRET-based assay using a dual-quencher substrate with low background and high sensitivity. See Seamon K J, Light Y K, Saada E A, Schoeniger J S, Harmon B. 2018. Versatile High-Throughput Fluorescence Assay for Monitoring Cas9 Activity. Analytical Chemistry 90:6913-6921. This assay specifically measures DNA substrate cleavage, and is able to differentiate between cleavage of a single strand of DNA and cleavage of both DNA strands.
Reactions (10 μL tubes) were set up in Cas9 reaction buffer (20 mM Tris-HCl, pH 7.5, 100 mM NaCl, 5 mM MgCl2, 0.1 mM EDTA) containing 50 nM annealed DNA substrate, 1.5 μM sgRNA, and 500 nM Cas9 in the wells of a black low volume 384-well plate. The reactions were incubated for 1 hour at ambient temperature; then, 10 μL of 8 M Gdn-HCl was added to quench the reaction before the plates were covered with an aluminum seal and incubated at 80° C. for 10 minutes. The fluorescence was read in a Tecan Infinite M1000 or SPARK plate spectrofluorometer (Tecan).
The peptides were diluted 2-fold from 200 to 12.5 μM and incubated for 1 hour with 500 nM SpyCas9, gRNA prior to addition of 50 nM FRET DNA substrate for 1 hour. […] Data are the average ±SD of three replicate wells.
(§1) For the 11 original peptides reactions (10 μL) were set up in Cas9 reaction buffer [20 mM Tris-HCl, pH 7.5, 100 mM NaCl, 5 mM MgCl2, 0.1 mM EDTA] containing 50 nM annealed DNA substrate, 1.5 μM sgRNA, and 0.5 μM Cas9 in the wells of a black low volume 384-well plate. The reactions were incubated for 1 hour at ambient temperature with the indicated concentration of peptide; then, 10 μL, of 8 M Guanidine-HCl was added to quench the reaction. The plates were covered with an aluminum seal and incubated at 75° C. for 10 minutes and cooled down to RT before reading.
(§2) The % inhibition was determined by subtracting normalized relative fluorescent value to Cas9 without peptides (% activity) from 100% cleavage activity of CjeCas9, SauCas9, SpyCas9 by FRET assay. Data are the average ±SD of eleven replicate wells from three technical replicates at the indicated concentration of peptides.
(§3) FIGS. 12A, 12B, and 12C show graphs of measurements and fitted curves of concentration dependent inhibition of mutated peptides against Cas9 variants. The inhibition was measured as relative fluorescent value to Cas9 without peptides (% activity) of CjeCas9 (line with squares), SauCas9 (line with diamonds), SpyCas9 (line with triangles) by FRET assay with the indicated concentration of peptides and compared to original peptides (line with circles). Data are the average ±SD of eleven replicate wells from three technical replicates.

The next series deals with T2, SauCas9 (Staphylococcus aureus, UniProt J7RUA5).
T2 construct: made in house; host or cells: E. coli BL21(star)DE3
In words: HT FRET-based Cas9 cleavage activity assay, SauCas9. Type of series: biochemical, S. aureus. As to the method:
(§4) To evaluate the ability of identified peptides to inhibit other Cas9 variants, SauCas9 and CjeCas9 cleavage assays were used to quantitatively measure changes in activity. […] The inhibition was measured as relative fluorescent value to Cas9 without peptides (% activity) of CjeCas9 (Top), SauCas9 (middle), SpyCas9 (bottom) by FRET assay with the indicated concentration of peptides. Data are the average ±SD of eleven replicate wells from three technical replicates.
as §1, §2, §3

In a further series the target is T3, CjeCas9 (Campylobacter jejuni subsp. jejuni serotype O:2, UniProt Q0P897).
T3 construct: made in house; host or cells: E. coli BL21(star)DE3
Kind of series: HT FRET-based Cas9 cleavage activity assay, CjeCas9. Type of series: biochemical, C. jejuni. The procedure: as §4, §1, §2, §3

Series [3] addresses T1, SpyCas9. Type of series: cell-based, S. pyogenes. The note with it: for reduction of SpyCas9 editing (relative % CRISPR editing): A549 GFP reporter cells, 500 ng plasmid 24 h before SpyCas9 RNP, compared to plasmid control; for cell toxicity: A549 reporter cells. Also on record: host or cells: protein RNP lipofected into A549 reporter cells. From the text: The cell-based reporter assay was generated using an endonuclease surrogate reporter construct expressed in A549 cells. This construct was composed of genes encoding two fluorescent proteins (red fluorescent protein (RFP) and green fluorescent protein (GFP)) linked by the endonuclease targeting sequence. In the absence of endonuclease (e.g. Cas9) expression, the reporter was designed to express the RFP but not GFP as it is placed out of frame. Upon expression of Cas9 with a targeting gRNA, the RNP introduces a double stranded break at the target site upstream of the GFP genes leading to frameshift mutations and expression of GFP (FIG. 7). An AAVS1 protospacer and PAM sequence used for targeting by SpyCas9 RNP is in between the RFP and GFP genes. RNP targeting to the AASV1+PAM sequence in the cell's nucleus results in a DSB and error prone NHEJ will likely cause either of the GFP genes to now become in-frame and induce GFP expression. The expression of GFP is strictly dependent on the presence of nuclease activity from endonucleases that specifically recognizes the target sequence in the reporter construct. A549 reporter cells for SpyCas9 were reverse transfected with 100-500 ng of indicated plasmids using Lipofectamine, the plasmids were at a 1:1 ratio with SpyCas9 RNP. […] After 24 hours the media was changed, and 100-500 ng of SpyCas9 RNP was forward transfected using CRISPRMax (Thermo Fisher).
Editing was assessed at 48 hours and 72 hours post transfection using the CX7 plate imager and/or flow cytometry using an ACCURI C6 flow cytometer (BD BIOSCIENCES) with FCS EXPRESS SOFTWARE (DE NOVO SOFTWARE). Cells were counted as edited if their FL-1 fluorescence was greater than that of the no RNP control. […] Error bars represent ±SD across technical replicates (n=2).

“Also recorded” adds a separate entry of the source. Like-named read-outs stand apart in the source and are kept apart here. Residues, ends and D or L forms follow the SMILES beside them. No end group written: not given here.

T3 sequence (Q0P897 whole entry): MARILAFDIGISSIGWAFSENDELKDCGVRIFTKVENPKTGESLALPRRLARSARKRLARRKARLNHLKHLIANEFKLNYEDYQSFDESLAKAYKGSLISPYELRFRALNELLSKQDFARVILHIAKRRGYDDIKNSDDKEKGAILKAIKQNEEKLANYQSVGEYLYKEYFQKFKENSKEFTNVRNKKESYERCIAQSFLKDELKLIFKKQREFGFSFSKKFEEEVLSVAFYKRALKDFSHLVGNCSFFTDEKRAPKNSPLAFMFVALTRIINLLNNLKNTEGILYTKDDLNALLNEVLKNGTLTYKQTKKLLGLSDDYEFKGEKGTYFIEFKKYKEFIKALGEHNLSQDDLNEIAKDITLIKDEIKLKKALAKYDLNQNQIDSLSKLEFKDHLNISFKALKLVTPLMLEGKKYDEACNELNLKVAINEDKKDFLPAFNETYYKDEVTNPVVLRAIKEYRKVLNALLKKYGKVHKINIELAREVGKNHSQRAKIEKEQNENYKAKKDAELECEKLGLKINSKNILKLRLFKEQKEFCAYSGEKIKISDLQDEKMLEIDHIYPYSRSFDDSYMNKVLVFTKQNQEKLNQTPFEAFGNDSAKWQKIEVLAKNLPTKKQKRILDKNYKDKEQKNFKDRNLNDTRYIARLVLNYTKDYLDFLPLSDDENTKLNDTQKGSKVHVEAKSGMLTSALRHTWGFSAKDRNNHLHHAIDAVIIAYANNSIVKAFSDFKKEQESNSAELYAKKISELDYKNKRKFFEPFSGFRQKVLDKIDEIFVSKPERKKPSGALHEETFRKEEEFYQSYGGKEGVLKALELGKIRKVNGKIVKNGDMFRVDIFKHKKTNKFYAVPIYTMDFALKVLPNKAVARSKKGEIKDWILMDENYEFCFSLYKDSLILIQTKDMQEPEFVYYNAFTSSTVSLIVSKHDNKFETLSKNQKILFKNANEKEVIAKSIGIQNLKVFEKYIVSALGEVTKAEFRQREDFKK
T2 sequence (J7RUA5 whole entry): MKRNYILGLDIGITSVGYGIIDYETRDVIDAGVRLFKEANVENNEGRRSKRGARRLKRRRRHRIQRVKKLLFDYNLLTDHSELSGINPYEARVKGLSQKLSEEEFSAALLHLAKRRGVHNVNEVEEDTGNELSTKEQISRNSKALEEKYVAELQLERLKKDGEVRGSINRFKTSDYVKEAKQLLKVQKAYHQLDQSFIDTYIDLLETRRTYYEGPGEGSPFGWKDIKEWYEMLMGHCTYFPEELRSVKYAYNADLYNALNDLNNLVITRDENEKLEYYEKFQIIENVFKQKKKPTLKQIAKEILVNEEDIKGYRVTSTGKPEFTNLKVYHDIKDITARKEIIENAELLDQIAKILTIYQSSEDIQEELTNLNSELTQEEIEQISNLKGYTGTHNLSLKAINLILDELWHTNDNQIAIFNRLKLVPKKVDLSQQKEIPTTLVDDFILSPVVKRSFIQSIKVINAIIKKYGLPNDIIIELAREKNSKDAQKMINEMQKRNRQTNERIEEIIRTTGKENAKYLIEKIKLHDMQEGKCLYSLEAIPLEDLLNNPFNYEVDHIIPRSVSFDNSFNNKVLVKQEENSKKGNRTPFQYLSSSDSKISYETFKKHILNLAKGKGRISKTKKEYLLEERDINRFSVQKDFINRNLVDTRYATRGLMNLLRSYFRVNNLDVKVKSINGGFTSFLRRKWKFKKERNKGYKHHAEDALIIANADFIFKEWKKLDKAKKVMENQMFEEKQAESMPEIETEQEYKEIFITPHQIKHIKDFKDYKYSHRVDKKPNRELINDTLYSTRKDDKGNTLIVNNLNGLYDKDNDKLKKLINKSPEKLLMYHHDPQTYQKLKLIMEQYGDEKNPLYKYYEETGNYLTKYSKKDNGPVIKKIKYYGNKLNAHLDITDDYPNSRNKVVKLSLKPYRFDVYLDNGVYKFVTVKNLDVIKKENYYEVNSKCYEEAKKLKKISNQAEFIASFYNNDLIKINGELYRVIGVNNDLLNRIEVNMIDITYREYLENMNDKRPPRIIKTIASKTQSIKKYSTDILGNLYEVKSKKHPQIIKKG
T1 sequence (Q99ZW2 whole entry): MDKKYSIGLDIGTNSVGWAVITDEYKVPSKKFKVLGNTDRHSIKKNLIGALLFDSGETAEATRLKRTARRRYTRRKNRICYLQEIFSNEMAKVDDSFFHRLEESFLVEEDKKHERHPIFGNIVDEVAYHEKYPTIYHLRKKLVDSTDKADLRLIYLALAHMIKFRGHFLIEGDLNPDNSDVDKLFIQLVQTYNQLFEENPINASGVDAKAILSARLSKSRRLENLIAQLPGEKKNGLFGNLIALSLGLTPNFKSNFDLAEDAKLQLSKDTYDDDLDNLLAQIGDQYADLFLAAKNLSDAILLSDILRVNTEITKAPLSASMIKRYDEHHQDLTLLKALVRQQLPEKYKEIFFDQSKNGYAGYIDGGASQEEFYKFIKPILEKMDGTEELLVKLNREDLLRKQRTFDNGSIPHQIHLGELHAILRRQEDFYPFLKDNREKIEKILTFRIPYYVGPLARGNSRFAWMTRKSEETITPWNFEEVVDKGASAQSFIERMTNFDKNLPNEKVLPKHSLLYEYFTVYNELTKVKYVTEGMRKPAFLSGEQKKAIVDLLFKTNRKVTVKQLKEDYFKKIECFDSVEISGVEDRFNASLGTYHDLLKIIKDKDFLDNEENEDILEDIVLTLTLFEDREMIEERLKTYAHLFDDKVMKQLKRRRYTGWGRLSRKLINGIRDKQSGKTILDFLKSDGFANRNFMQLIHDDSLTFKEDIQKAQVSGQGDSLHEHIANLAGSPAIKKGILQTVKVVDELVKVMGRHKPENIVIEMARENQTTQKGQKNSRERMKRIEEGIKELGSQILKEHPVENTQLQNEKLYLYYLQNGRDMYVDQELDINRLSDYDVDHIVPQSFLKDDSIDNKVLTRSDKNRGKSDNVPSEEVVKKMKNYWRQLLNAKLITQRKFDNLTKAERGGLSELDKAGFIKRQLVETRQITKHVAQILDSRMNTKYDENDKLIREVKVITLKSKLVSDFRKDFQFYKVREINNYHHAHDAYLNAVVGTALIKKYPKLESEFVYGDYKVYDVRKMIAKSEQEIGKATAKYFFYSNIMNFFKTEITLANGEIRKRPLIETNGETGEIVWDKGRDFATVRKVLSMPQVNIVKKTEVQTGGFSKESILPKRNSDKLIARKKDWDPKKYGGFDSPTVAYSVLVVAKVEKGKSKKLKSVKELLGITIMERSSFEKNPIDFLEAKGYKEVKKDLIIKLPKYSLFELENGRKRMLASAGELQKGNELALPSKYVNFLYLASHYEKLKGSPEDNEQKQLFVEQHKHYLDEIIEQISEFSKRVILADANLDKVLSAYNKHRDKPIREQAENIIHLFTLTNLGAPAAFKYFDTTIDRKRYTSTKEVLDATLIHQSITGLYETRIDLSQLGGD

As to RLYHQCFLACLIDRQSPRNV [Peptide 73], in the series with SpyCas9 [1], the “mechanism subset: blocks Cas9 RNP binding to target DNA or other mechanism” value (from here on “mechanism subset”) is “block Cas9 RNP binding to the target DNA” and the “binding of SpyCas9 RNP to DNA substrate (beacon fluorescence)” value is recorded as “unaltered; also recorded: did not reduce substrate binding”.
Take “LNVKIENAHLTTNLSTMPLVLC [Peptide 63-2-87]”: the figures for the IC50 on SpyCas9 [2], at SauCas9 and at CjeCas9 were more than 200 µM, more than 200 µM and 90.9 µM, respectively.
RRSHIAWLLAMSLTWYS [Peptide 99]: the “activity of SpyCas9 (% activity, FRET)” value on SpyCas9 [2] (peptide 100 μM) and on SpyCas9 [2] (peptide 200 μM) was “significantly reduced activity” each time. For the same compound, the “mechanism subset” value on SpyCas9 [1] is recorded as “block Cas9 RNP binding to the target DNA”. The “binding of SpyCas9 RNP to DNA substrate (beacon fluorescence)” value at SpyCas9 [1] is “significantly reduced; also recorded: reducing binding”. In addition, the “activity of SauCas9 (% activity, FRET)” value at SauCas9 (peptide 100 μM) and at SauCas9 (peptide 200 μM) was “significantly reduced activity” in each case. The “activity of CjeCas9 (% activity, FRET)” value at CjeCas9 (peptide 100 μM) and at CjeCas9 (peptide 200 μM) was “significantly reduced activity” each time.
In the case of GDPNSRRSHIARLLAMSLTWYS [Peptide 99-1-1], the half-maximal inhibitory concentration (IC50) (as a rule, the concentration needed to halve the response being measured) at SpyCas9 [2] was found to be 63.2 µM; on SauCas9, 99.3 µM; at CjeCas9 it was 105 µM.
Regarding IAGFRREWFNQNTYFENWHADR [Peptide 15], at SpyCas9 [3], the “reduction of SpyCas9 editing (relative % CRISPR editing)” value (from here on “reduction … (relative % CRISPR editing)”) is reported as 21±4.2% and the cell toxicity result was “without cell toxicity”.
With DRSHKILLRHSGCLYRFLQRYL [Peptide 90-2-5], the IC50 on SpyCas9 [2] was 86.5 µM; against SauCas9 it was 91.3 µM; against CjeCas9, more than 200 µM.
Taken in the same sequence, the figures for “DGSLKILLRYNGCHYRLLQRSL [Peptide 90-3-50]” were 65.5 µM, more than 200 µM and more than 200 µM.
With “DRSQKIFLRYNRCRYRLLQRGL [Peptide 90-1-18]”, the half-maximal inhibitory concentration (IC50) at SpyCas9 [2] is 48.4 µM; against SauCas9, 58.4 µM; on CjeCas9 it was 73.6 µM.
Turning to TESIRSYFAMTIRRNH [Peptide 80], in the series with SpyCas9 [1], the “mechanism subset” value is reported as “block Cas9 RNP binding to the target DNA”.
The same measure, in the same setting: for LRQISNTSIVMGTTPSSVAVCG [Peptide 61] the value was “inhibit CACs9 RNP cleavage by another mechanism”; for KERRRSLMQLSVKSNSLFLGGT [Peptide 82], “inhibit CACs9 RNP cleavage by another mechanism”.
On to VCAFSADESLLIRRRHQRRRAG [Peptide 60], for which, on SpyCas9 [2], the concentration for half-maximal inhibition (IC50) amounted to 92.2 µM. In addition, on SpyCas9 [3], the “reduction … (relative % CRISPR editing)” value is 30±2.3% and the cell toxicity result is “without cell toxicity”.
Turning to “DRSHKILLCYNGRNKRLLLRRL [Peptide 90-2-18]”, the figures for the 50% inhibitory concentration (IC50) at SpyCas9 [2], against SauCas9 and on CjeCas9 were 47.2 µM, 68.2 µM and 74.9 µM, respectively.
Take “KERHRSLMRTTVKYYSLCLGGT [Peptide 82-2-12]”: the half-maximal inhibitory concentration (IC50) on SpyCas9 [2] was found to be 35.3 µM; against SauCas9, 69 µM; at CjeCas9, 87.1 µM.
In the case of DRSHKILLRYNGCHYRLLQRSL [Peptide 90], the IC50 at SpyCas9 [2] was 114 µM. Moreover, at SpyCas9 [3], the “reduction … (relative % CRISPR editing)” value was found to be 35±2.1% and the cell toxicity entry is listed as “without cell toxicity”.
As to “RERRRSLIQISVKSYPLFLGGT [Peptide 82-2-28]”, the figures for the IC50 at SpyCas9 [2], on SauCas9 and at CjeCas9 were 72.5 µM, 153 µM and more than 200 µM, respectively.
Taken in the same sequence, the figures for RDPNSRRSHIARLLAMSLTWYS [Peptide 99-2-2] were 56.2 µM, 110 µM and more than 200 µM.
With `CC[C@H](C)[C@H](NC(=O)[C@H](CCCNC(=N)N)NC(=O)[C@H](Cc1ccc(O)cc1)NC(=O)[C@H](Cc1ccc(O)cc1)NC(=O)[C@@H](N)CC(C)C)C(=O)N[C@@H](CCSC)C(=O)N[C@@H](CC(C)C)C(=O)N[C@@H](CO)C(=O)N[C@@H](CS)C(=O)N1CCC[C@H]1C(=O)N[C@@H](CCCCN)C(=O)N[C@@H](Cc1ccc(O)cc1)C(=O)N[C@@H](Cc1ccc(O)cc1)C(=O)N1CCC[C@H]1C(=O)N[C@@H](CS)C(=O)N[C@@H](CCC(=O)O)C(=O)N[C@@H](CC(C)C)C(=O)N[C@H](C(=O)NCC(=O)N[C@@H](Cc1c[nH]cn1)C(=O)N[C@H](C(=O)N[C@@H](CO)C(=O)O)[C@@H](C)O)C(C)C` [Peptide 50] (H-LYYRIMLSCPKYYPCELVGHTS-OH), the IC50 on SpyCas9 [2] is 145 µM. Moreover, at SpyCas9 [3], the “reduction … (relative % CRISPR editing)” value is reported as 30±1.4% and the cell toxicity result is on record as “without cell toxicity”.
As to “VSAYSADESLLIRRRRRRRRAG [Peptide 60-1-56]”, the values for the IC50 at SpyCas9 [2], on SauCas9 and at CjeCas9 were 44.6 µM, 62.9 µM and 69.2 µM, respectively.
Taken in the same sequence, the figures for “PNVKIGKAHLTTIMSTMPLIIC [Peptide 63-2-27]” were 81.6 µM, 95.3 µM and more than 200 µM.
Regarding LNVKIGNAHLTTIMSTMPLVLC [Peptide 63], on SpyCas9 [1], the “mechanism subset” value was “inhibit CACs9 RNP cleavage by another mechanism”.
